Results taken from patent US20220363662A1, “COMPOUNDS AS LXR AGONISTS” (Integral Biosciences Privated Limited, priority 2021, published 2022).

Tests used:
LXR alpha = biological target: T1, LXR alpha (Homo sapiens, UniProt Q13133); assay: LXR alpha agonist assay (Lanthascreen TR-FRET); format: biochemical; conditions: LXR alpha-LBD 2.5 nM, read-out: LXR-α EC50
T1 construct: 5 μL of 4×LXR alpha-LBD was added to each well (final concentration 2.5 nM); purchased Thermofisher PV4655
T1 sequence (Q13133 209-447 limits assumed): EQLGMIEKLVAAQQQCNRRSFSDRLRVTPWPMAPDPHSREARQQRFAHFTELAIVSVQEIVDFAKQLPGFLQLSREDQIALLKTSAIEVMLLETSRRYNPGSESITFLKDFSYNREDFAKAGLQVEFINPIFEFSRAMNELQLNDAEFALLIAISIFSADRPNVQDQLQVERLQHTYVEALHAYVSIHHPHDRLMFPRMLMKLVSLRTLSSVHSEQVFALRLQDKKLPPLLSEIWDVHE
Protocol: EC50 values of compounds against LXR alpha were determined at Integral BioSciences (India) using Lanthascreen TR-FRET (Thermofisher, Cat #PV4655). Assay was performed in a 20 μL final volume in a Black 384-well plate (Corning, Cat #4511). Dose response curve for the compounds were prepared in duplicates with starting concentration at 30 μM and a three-fold titration was performed. The reaction buffer consisted of TR-FRET Coregulator Buffer H. To the compound dilution, 5 μL of 4×LXR alpha-LBD was added to each well (final concentration 2.5 nM). An equal volume (5 μL) containing 4×Fl-D22/Tb-anti GST antibody (final concentration 250 nM/10 nM) was added to initiate the enzyme reaction and the reaction was incubated for 60 min at 22° C. after which the plates were read using BioTek Plate reader for TR-FRET every hour up to 4 hours.
Analysis was done using the standard curve by non-linear regression, variable slope inhibitor curve fits (Graph-Pad Prism) and EC50's of compounds were determined wherever possible.

LXR beta = biological target: T2, LXR beta (Homo sapiens, UniProt P55055); assay: LXR beta agonist assay (Lanthascreen TR-FRET); format: biochemical; conditions: LXR beta-LBD 5 nM, read-out: LXR-β EC50
T2 construct: 5 μL of 4×LXR beta-LBD was added to each well (final concentration 5 nM); purchased Thermofisher PV4658
T2 sequence (P55055 222-460 limits assumed): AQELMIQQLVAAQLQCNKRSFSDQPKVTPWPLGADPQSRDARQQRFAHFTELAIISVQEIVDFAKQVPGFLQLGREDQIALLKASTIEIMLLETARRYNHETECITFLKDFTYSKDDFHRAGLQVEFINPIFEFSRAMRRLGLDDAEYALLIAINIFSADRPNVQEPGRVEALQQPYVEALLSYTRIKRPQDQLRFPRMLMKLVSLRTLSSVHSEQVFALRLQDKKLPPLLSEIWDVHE
How it was run: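 TR-FRET coactivator recruitment: 5 nM LXR beta-LBD with 100 nM Fl-D22 peptide and 10 nM Tb-anti-GST antibody (final) in Coregulator Buffer G, 60 min at 22° C, read hourly up to 4 hours. Duplicate three-fold titrations from 30 μM; EC50 by variable-slope nonlinear regression.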

MDA-MB-231 = assay: Cell viability assay (resazurin) in MDA-MB-231; format: cell-based; conditions: Homo sapiens, 96 hr exposure, read-out: MDA_MB-231 Cell IC50
Protocol: (§1) HepG2 (ATCC® HB-8065™), hepatocellular carcinoma, A549 (ATCC® CCL-185™), lung epithelial carcinoma, MCF7 (ATCC® HTB-22™), mammary gland epithelial carcinoma, MDA-MB-231 (ATCC® HTB-26™), TNBC, MiaPaCa-2 (ATCC® CRL-1420™) & Panc-1 (ATCC® CRL-1469™), pancreatic epithelial carcinoma, HCT116 (ATCC® CCL-247™), colon epithelial carcinoma and U87MG (ATCC® HTB-14™), brain epithelial carcinoma cell lines respectively were seeded in the respective medium (DMEM, Cat #10569044 with 10% FBS, Cat #16000044; Gibco for HepG2, A549, MCF7, MDA-MB-231, MiaPaCa-2, Panc-1, HCT116 and MEM, Cat #11095080 with 10% FBS for U87MG). Cells were allowed to grow at 37° C. for 24 hr in 5% CO2 (culture conditions) in a Nuaire incubator (humidified). Serially diluted compounds (100 μl) were added to the culture plate 24 hr later and the cultures were further incubated in culture conditions for 96 hr. Experiment was terminated at the completion of 96 hr exposure to the drug by replacing the medium with 100 μl of 1 mM of resazurin (R7017; Sigma) prepared in culture medium and the plates were further incubated in culture conditions for 4 hr. Fluorescence was then measured using a multimodal plate reader (Biotek Synergy Neo) at an excitation wavelength of 535 nm and emission wavelength of 590 nm to obtain relative fluorescence units. Data analysis was done by subtracting the background fluorescence (only medium blank) value from each reading and then normalizing with the vehicle control (DMSO treated cells) to obtain percent survival/proliferation. Percent survival at different doses was used to calculate IC50 by fitting the curve to the “four-parameter variable slope logistic model” using Prism Graph Pad.

HepG2 = assay: Cell viability assay (resazurin) in HepG2; format: cell-based; conditions: Homo sapiens, 96 hr exposure
Protocol: as §1

A549 = assay: Cell viability assay (resazurin) in A549; format: cell-based; conditions: Homo sapiens, 96 hr exposure
Protocol: as §1

MCF7 = assay: Cell viability assay (resazurin) in MCF7; format: cell-based; conditions: Homo sapiens, 96 hr exposure
Protocol: as §1

HCT116 = assay: Cell viability assay (resazurin) in HCT116; format: cell-based; conditions: Homo sapiens, HCT-116; 96 hr exposure
Protocol: as §1

THP1 = assay: Cell viability assay in THP1; format: cell-based; conditions: Homo sapiens, THP-1

Structure (SMILES) | EC50 (LXR alpha) [µM] | EC50 (LXR beta) [µM] | IC50 (MDA-MB-231) [µM] | IC50 (HepG2) [µM] | IC50 (A549) [µM] | IC50 (MCF7) [µM] | IC50 (HCT116) [µM] | IC50 (THP1) [µM]
CN(C)C(=O)c1ccc(N2CCN(C3CC4(C3)CN(C(=O)[C@](O)(c3ccccc3)C(F)(F)F)C4)CC2)cc1Cl (single isomer, unassigned) [Compound 1.17] | 10.6 | 0.156 | > 30 | 22.6 | > 30 | – | – | –
CC(C)[C@](O)(C(=O)N1CCC2(CC1)CN(C1CCN(c3ccc(C(=O)N(C)C)c(Cl)c3)CC1)C2)C(F)(F)F (single isomer, unassigned) [Compound 1.74] | 1.25 | 0.75 | – | > 30 | – | – | – | –
CN(C)C(=O)c1ccc(N2CCN(C3CC4(C3)CN(S(=O)(=O)c3ccccc3C(F)(F)F)C4)CC2)cc1Cl [Compound 1.5, 2-chloro-N,N-dimethyl-4-(4-(2-(2-(trifluoromethyl)phenylsulfonyl)-2-azaspiro[3.3]heptan-6-yl)piperazin-1-yl)benzamide] | > 30 | 1.11 | – | – | – | – | – | –
CN(C)C(=O)c1ccc(-c2nnc(C3=CCN(S(=O)(=O)c4ccccc4Cl)CC3)s2)cc1Cl [Compound 1.12, 2-chloro-4-(5-(1-(2-chlorophenylsulfonyl)-1,2,3,6-tetrahydropyridin-4-yl)-1,3,4-thiadiazol-2-yl)-N,N-dimethylbenzamide] | 4.1 | 0.211 | 15.3 | 14.6 | > 30 | – | – | –
O=C(N1CCC(C2CCN(c3cc(Cl)c4c(=O)[nH]ccc4c3)CC2)CC1)[C@](O)(c1ccccc1)C(F)(F)F [Compound 1.19, (R)-8-chloro-6-(1′-(3,3,3-trifluoro-2-hydroxy-2-phenylpropanoyl)-4,4′-bipiperidin-1-yl)isoquinolin-1(2H)-one] | 0.41 | 0.451 | 7.2 | 3.7 | 6.9 | – | – | –
O=C(N1CCC(N2CCN(c3cc(Cl)c4c(=O)[nH]ccc4c3)CC2)CC1)C1(c2ccccc2)CCC1 [Compound 1.29, 8-chloro-6-(4-(1-(1-phenylcyclobutanecarbonyl)piperidin-4-yl)piperazin-1-yl)isoquinolin-1(2H)-one] | 8.63 | 0.92 | – | – | – | – | – | –
CN(C)C(=O)c1ccc(-c2nnc(N3CCC4(CCN(S(=O)(=O)c5ccccc5Cl)CC4)C3)s2)cc1Cl [Compound 1.50, 2-chloro-4-(5-(8-(2-chlorophenylsulfonyl)-2,8-diazaspiro[4.5]decan-2-yl)-1,3,4-thiadiazol-2-yl)-N,N-dimethylbenzamide] | – | – | 17 | 23.8 | 14.4 | 14.5 | 15.4 | 14.6
CN(C)C(=O)c1ccc(-c2nnc(N3CC4(CCN(S(=O)(=O)c5ccccc5Cl)CC4)C3)s2)cc1Cl [Compound 1.51, 2-chloro-4-(5-(7-(2-chlorophenylsulfonyl)-2,7-diazaspiro [3.5]nonan-2-yl)-1,3,4-thiadiazol-2-yl)-N,N-dimethylbenzamide] | – | – | 5.44 | > 29 | 4.47 | 4.18 | 4.46 | 5.93
CN(C)C(=O)c1ccc(NC2CN(C3CCN(C(=O)C(F)(F)c4ccccc4Cl)CC3)C2)cc1Cl [Compound 1.52, 2-chloro-4-(1-(1-(2-(2-chlorophenyl)-2,2-difluoroacetyl)piperidin-4-yl)azetidin-3-ylamino)-N,N-dimethylbenzamide] | – | 5.68 | > 30 | > 30 | > 30 | > 30 | > 30 | > 30
CN(C)C(=O)c1ccc(N[C@H]2CCCN(C3CCN(C(=O)[C@](O)(c4ccccc4)C(F)(F)F)CC3)C2)cc1Cl [Compound 1.53, 2-chloro-N,N-dimethyl-4-((S)-1′-((R)-3,3,3-trifluoro-2-hydroxy-2-phenylpropanoyl)-1,4′-bipiperidin-3-ylamino)benzamide] | – | 16.9 | > 30 | > 30 | > 30 | > 30 | > 30 | > 30
CC(C)C(O)(C(=O)N1CCC2(CC1)CN(C1CCN(c3ccc(C(=O)N(C)C)c(Cl)c3)CC1)C2)C(F)(F)F (stereo not drawn) [Compound 1.54, 2-chloro-4-(4-(7-(2-hydroxy-3-methyl-2-(trifluoromethyl)butanoyl)-2,7-diazaspiro[3.5]nonan-2-yl)piperidin-1-yl)-N,N-dimethylbenzamide] | – | > 30 | > 30 | > 30 | > 30 | > 30 | > 30 | > 30
CN(C)C(=O)c1ccc(NC2CN(C3CCN(C(=O)C4(c5c(F)cccc5Cl)CCCC4)CC3)C2)cc1Cl [Compound 1.56, 2-chloro-4-(1-(1-(1-(2-chloro-6-fluorophenyl)cyclopentanecarbonyl)piperidin-4-yl)azetidin-3-ylamino)-N,N-dimethylbenzamide] | – | – | 13.8 | 12.9 | 12.4 | 12.8 | 12.4 | 14.5
CC(C)C(O)(C(=O)N1CCC(N2CC[C@@H](Nc3ccc(C(=O)N(C)C)c(Cl)c3)C2)CC1)C(F)(F)F (stereo partly drawn) [Compound 1.58, 2-chloro-4-((3R)-1-(1-(2-hydroxy-3-methyl-2-(trifluoromethyl)butanoyl)piperidin-4-yl)pyrrolidin-3-ylamino)-N,N-dimethylbenzamide] | – | – | > 30 | > 30 | > 30 | > 30 | > 30 | > 30
CN(C)C(=O)c1ccc(OC2CN(C3CCN(C(=O)[C@](O)(c4ccccc4)C(F)(F)F)CC3)C2)cc1Cl [Compound 1.77, (R)-2-chloro-N,N-dimethyl-4-(1-(1-(3,3,3-trifluoro-2-hydroxy-2-phenylpropanoyl)piperidin-4-yl)azetidin-3-yloxy)benzamide] | 19.5 | 1.53 | – | > 30 | – | – | – | –
CC1CC(N2CC(Nc3ccc(C(=O)N(C)C)c(Cl)c3)C2)CCN1S(=O)(=O)c1ccccc1Cl (stereo not drawn) [Compound 1.84, 2-chloro-4-(1-(1-(2-chlorophenylsulfonyl)-2-methylpiperidin-4-yl)azetidin-3-ylamino)-N,N-dimethylbenzamide] | 16.1 | 1.14 | – | – | – | – | – | –
